Test results: patent US20070066615A1, “Heterocyclic compounds” (BAYER HEATHCARE AG, priority 2003, published 2007)

melting point: 201 °C (dec.)
SMILES: O=C(NCC1CN(c2ccc(N3CCCC3=O)cc2)C(=O)CO1)c1ccc(Cl)s1 (stereo not shown) [Example 4, 5-Chloro-N-({5-oxo-4-[4-(2-oxo-1-pyrrolidinyl)phenyl]-2-morpholinyl}methyl)-2-thiophenecarboxamide]
